Experimental data: PubChem BioAssay (NCI)
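Where inhibition never reached the appropriate level, the endpoint shown equals the highest concentration tested. Otherwise, values were interpolated linearly from a five-concentration, 48-hour dose response in 96-well plates. TGI marks complete inhibition of growth.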

Experiments:
Assay in all cases: growth of human tumour cells (NCI), 48 h
BT-549 breast = system: BT-549 breast
COLO 205 colon = system: COLO 205 colon
HL-60(TB) leukemia = system: HL-60(TB) leukemia
HOP-62 NSCLC = system: HOP-62 NSCLC
HOP-92 NSCLC = system: HOP-92 NSCLC
IGROV1 ovarian = system: IGROV1 ovarian
KM12 colon = system: KM12 colon
MDA-MB-231 breast = system: MDA-MB-231 breast
RPMI-8226 leukemia = system: RPMI-8226 leukemia
SF-268 CNS = system: SF-268 CNS
SK-MEL-2 melanoma = system: SK-MEL-2 melanoma
SR leukemia = system: SR leukemia
TK-10 renal = system: TK-10 renal
U251 CNS = system: U251 CNS

SMILES | TGI (BT-549 breast) | TGI (COLO 205 colon) | TGI (HL-60(TB) leukemia) | TGI (HOP-62 NSCLC) | TGI (HOP-92 NSCLC) | TGI (IGROV1 ovarian) | TGI (KM12 colon) | TGI (MDA-MB-231 breast) | TGI (RPMI-8226 leukemia) | TGI (SF-268 CNS) | TGI (SK-MEL-2 melanoma) | TGI (SR leukemia) | TGI (TK-10 renal) | TGI (U251 CNS)
COc1ccc(-c2ncn(C[Si](C)(C)C)c2-c2ccc(OC)cc2)cc1 | 72.3 µM | 11.7 µM | 4.57 µM | 30.7 µM | 17.5 µM | 23.1 µM | 19.9 µM | 27.6 µM | 4.57 µM | 28.7 µM | 20.5 µM | 66.2 µM | 20 µM | 20.7 µM
Nc1ccc2ccc(N3CCNCC3)nc2n1 | > 100 µM | > 100 µM | > 100 µM | > 100 µM | > 100 µM | > 100 µM | > 100 µM | > 100 µM | > 100 µM | > 100 µM | > 100 µM | > 100 µM | > 100 µM | > 100 µM
O=c1c2cnccc2cc2c3ccccc3ccn12 | > 100 µM | > 100 µM | > 100 µM | > 100 µM | > 100 µM | 33.3 µM | > 100 µM | > 100 µM | > 100 µM | > 100 µM | > 100 µM | > 100 µM | > 100 µM | > 100 µM
CN(C)CCNC(=O)c1cccc2nc3c(C(=O)NCCN(C)C)cccc3nc12 | 15.9 µM | 1.87 µM | 3.96 µM | 5.12 µM | 7.83 µM | > 23.3 µM | 8.82 µM | 3.4 µM | > 23.6 µM | 4.84 µM | 4.16 µM | 3.6 µM | 6.81 µM | 11.2 µM
CC(C)(C)NC(=O)/C(=C\Sc1ccccc1)c1ccccc1 | > 100 µM | > 100 µM | > 100 µM | > 100 µM | > 42.4 µM | > 100 µM | > 100 µM | > 100 µM | > 100 µM | > 87.8 µM | > 100 µM | > 100 µM | > 100 µM | > 100 µM
N/C(=N\Nc1ccc(Cl)cc1)c1cnccn1 | > 100 µM | 40.1 µM | > 100 µM | > 100 µM | > 100 µM | > 100 µM | > 100 µM | > 100 µM | > 100 µM | > 100 µM | > 100 µM | > 100 µM | > 100 µM | > 100 µM
